Type in all cases: functional
The subject of assay [1] is Bipolaris oryzae. The assay can be described thus: Antifungal activity against Bipolaris oryzae assessed as fungus colony inhibition at 100 ppm measured after 96 hr by agar dilution method.
Assay [2] relates to Bipolaris oryzae. The assay can be described thus: Antifungal activity against Bipolaris oryzae assessed as fungus colony inhibition at 1000 ppm measured after 96 hr by agar dilution method. In general terms: Agar dilution tests growth on a series of plates holding different concentrations.
Assay [3] concerns Aspergillus niger. The assay can be described thus: Antifungal activity against Aspergillus niger assessed as fungus colony inhibition at 100 ppm measured after 96 hr by agar dilution method.
Assay [4] relates to Aspergillus niger. As to the kind of experiment: Antifungal activity against Aspergillus niger assessed as fungus colony inhibition at 1000 ppm measured after 96 hr by agar dilution method.
Assay [5] concerns Aspergillus niger. As to the kind of experiment: Antifungal activity against Aspergillus niger assessed as fungus colony inhibition at 10 ppm measured after 96 hr by agar dilution method.
The subject of assay [6] is Bipolaris oryzae. As to the kind of experiment: Antifungal activity against Bipolaris oryzae assessed as fungus colony inhibition at 10 ppm measured after 96 hr by agar dilution method.

For 18 compounds, inhibition results are on record in ChEMBL document CHEMBL3045218, “Synthesis and Fungicidal Activities of Some 1-Aryloxyaceto-3-(5-aryl-1, 3, 4-oxadiazol-2-yl) thioureas and Corresponding Oxadiazolo [3, 2-a]-s-triazines” (1990).

One may read the inhibition as how much of the control response was suppressed. `COc1ccc(-c2nn3c(COc4cc(C)ccc4C(C)C)nc(=S)nc3o2)cc1`: the figures for the inhibition at 100 ppm in the assay with Bipolaris oryzae [1] and in the assay with Aspergillus niger [3] were 64.8% and 66.4%, respectively. Besides, the inhibition at 1000 ppm in the assay with Bipolaris oryzae [2] stood at 80.2%; in the assay with Aspergillus niger [4], 82.5%. Moreover, the inhibition at 10 ppm with Aspergillus niger [5] was determined as 52.6%; in the assay with Bipolaris oryzae [6] it was 52.3%.

`COc1ccc(-c2nn3c(COc4cccc(C)c4)nc(=S)nc3o2)cc1`: the inhibition at 100 ppm in the assay with Bipolaris oryzae [1] worked out at 40.2%; in the assay with Aspergillus niger [3], 42.3%. Moreover, the inhibition at 1000 ppm was 60.3% in the assay with Bipolaris oryzae [2] and 62.5% in the assay on Aspergillus niger [4]. Also, the values for the inhibition at 10 ppm in the assay with Aspergillus niger [5] and with Bipolaris oryzae [6] were 32% and 30.4%, respectively.

Take `COc1ccc(-c2nnc(NC(=S)NC(=O)COc3ccc(C)cc3)o2)cc1`: the figures for the inhibition at 100 ppm in the assay with Bipolaris oryzae [1] and in the assay with Aspergillus niger [3] were 55.6% and 56.9%, respectively. Besides, the results for the inhibition at 1000 ppm in the assay on Bipolaris oryzae [2] and in the assay on Aspergillus niger [4] were 75.3% and 76.3%, respectively. Also, the inhibition at 10 ppm with Aspergillus niger [5] amounted to 39.2%; with Bipolaris oryzae [6], 38.5%.

`Cc1ccc(C(C)C)c(OCC(=O)NC(=S)Nc2nnc(-c3ccccc3)o2)c1`: the inhibition at 100 ppm came to 45.3% with Bipolaris oryzae [1] and 48.2% with Aspergillus niger [3]. The inhibition at 1000 ppm in the assay with Bipolaris oryzae [2] stood at 66.6%; with Aspergillus niger [4], 69.3%. The inhibition at 10 ppm in the assay with Aspergillus niger [5] worked out at 33.7%; with Bipolaris oryzae [6], 31.8%.

In the case of `O=[N+]([O-])c1ccccc1OCc1nc(=S)nc2oc(-c3ccccc3)nn12`, the inhibition at 100 ppm in the assay on Bipolaris oryzae [1] worked out at 55.4%; in the assay with Aspergillus niger [3], 52.2%. The inhibition at 1000 ppm with Bipolaris oryzae [2] was determined as 74.4%; in the assay on Aspergillus niger [4] it was 70.2%. Besides, the inhibition at 10 ppm in the assay with Aspergillus niger [5] was 40.3%; in the assay on Bipolaris oryzae [6] it was 40.2%.

As for `Cc1cccc(OCc2nc(=S)nc3oc(-c4ccccc4)nn23)c1`, the inhibition at 100 ppm with Bipolaris oryzae [1] is 53.2%; in the assay on Aspergillus niger [3] it was 57.3%. The inhibition at 1000 ppm stood at 72.5% in the assay on Bipolaris oryzae [2] and 76.2% in the assay on Aspergillus niger [4]. Further, the inhibition at 10 ppm in the assay on Aspergillus niger [5] is 41.5%; with Bipolaris oryzae [6], 36.7%.

With `Cc1ccc(OCc2nc(=S)nc3oc(-c4ccccc4)nn23)cc1`, the inhibition at 100 ppm turned out to be 52.5% with Bipolaris oryzae [1] and 56.7% with Aspergillus niger [3]. In addition, the inhibition at 1000 ppm with Bipolaris oryzae [2] worked out at 72.6%; in the assay with Aspergillus niger [4], 75.3%. Moreover, the inhibition at 10 ppm turned out to be 40.9% in the assay on Aspergillus niger [5] and 40.3% with Bipolaris oryzae [6].

For `O=C(COc1ccccc1[N+](=O)[O-])NC(=S)Nc1nnc(-c2ccccc2)o1`, the inhibition at 100 ppm worked out at 65.4% in the assay with Bipolaris oryzae [1] and 68.4% in the assay on Aspergillus niger [3]. In addition, the inhibition at 1000 ppm with Bipolaris oryzae [2] was 80.2%; in the assay with Aspergillus niger [4], 85.6%. For the same compound, the inhibition at 10 ppm was 54.8% in the assay with Aspergillus niger [5] and 51.6% with Bipolaris oryzae [6].

`COc1ccc(-c2nn3c(COc4ccc(C)cc4)nc(=S)nc3o2)cc1`: the inhibition at 100 ppm was 40.5% in the assay on Bipolaris oryzae [1] and 42.7% in the assay on Aspergillus niger [3]. In addition, the inhibition at 1000 ppm with Bipolaris oryzae [2] came out at 60.8%; in the assay with Aspergillus niger [4] it was 62.3%. Besides, the inhibition at 10 ppm is 32.6% in the assay on Aspergillus niger [5] and 30.9% in the assay with Bipolaris oryzae [6].

For `Cc1cccc(OCC(=O)NC(=S)Nc2nnc(-c3ccccc3)o2)c1`, the inhibition at 100 ppm in the assay on Bipolaris oryzae [1] was determined as 50.4%; in the assay on Aspergillus niger [3], 50.2%. Also, the results for the inhibition at 1000 ppm with Bipolaris oryzae [2] and in the assay on Aspergillus niger [4] were 69.8% and 71.3%, respectively. The inhibition at 10 ppm with Aspergillus niger [5] is 34.7%; in the assay with Bipolaris oryzae [6] it was 36.6%.

For the compound `COc1ccc(-c2nnc(NC(=S)NC(=O)COc3cccc(C)c3)o2)cc1`, the inhibition at 100 ppm in the assay with Bipolaris oryzae [1] worked out at 56.4%; with Aspergillus niger [3], 55.3%. Also, the inhibition at 1000 ppm in the assay with Bipolaris oryzae [2] was found to be 75.6%; in the assay on Aspergillus niger [4] it was 77.2%. In addition, the inhibition at 10 ppm in the assay with Aspergillus niger [5] was determined as 39.4%; in the assay with Bipolaris oryzae [6], 40.5%.

With `COc1ccc(-c2nn3c(COc4ccc([N+](=O)[O-])cc4)nc(=S)nc3o2)cc1`, the inhibition at 100 ppm in the assay with Bipolaris oryzae [1] turned out to be 60.5%; in the assay on Aspergillus niger [3], 58.5%. In addition, the inhibition at 1000 ppm with Bipolaris oryzae [2] was determined as 77.9%; in the assay on Aspergillus niger [4], 75.8%. Also, the inhibition at 10 ppm in the assay with Aspergillus niger [5] was 41.5%; with Bipolaris oryzae [6], 48.5%.

`O=[N+]([O-])c1ccc(OCc2nc(=S)nc3oc(-c4ccccc4)nn23)cc1`: the figures for the inhibition at 100 ppm in the assay with Bipolaris oryzae [1] and with Aspergillus niger [3] were 56.2% and 53.3%, respectively. For the same compound, the inhibition at 1000 ppm with Bipolaris oryzae [2] was found to be 73.4%; in the assay with Aspergillus niger [4], 71.2%. For the same compound, the inhibition at 10 ppm with Aspergillus niger [5] was 40.7%; with Bipolaris oryzae [6], 41.5%.

With `O=C(COc1ccc([N+](=O)[O-])cc1)NC(=S)Nc1nnc(-c2ccccc2)o1`, the inhibition at 100 ppm in the assay with Bipolaris oryzae [1] is 64.7%; with Aspergillus niger [3], 67.9%. The results for the inhibition at 1000 ppm in the assay with Bipolaris oryzae [2] and with Aspergillus niger [4] were 81.2% and 85.2%, respectively. The inhibition at 10 ppm in the assay with Aspergillus niger [5] was determined as 54.3%; with Bipolaris oryzae [6], 50.8%.

Take `Cc1ccc(C(C)C)c(OCc2nc(=S)nc3oc(-c4ccccc4)nn23)c1`: the inhibition at 100 ppm worked out at 60.4% with Bipolaris oryzae [1] and 62.1% with Aspergillus niger [3]. In addition, the inhibition at 1000 ppm in the assay on Bipolaris oryzae [2] was 74.8%; in the assay on Aspergillus niger [4], 78.6%. For the same compound, the values for the inhibition at 10 ppm in the assay with Aspergillus niger [5] and with Bipolaris oryzae [6] were 48.2% and 48.6%, respectively.

Regarding `COc1ccc(-c2nnc(NC(=S)NC(=O)COc3cc(C)ccc3C(C)C)o2)cc1`, the values for the inhibition at 100 ppm with Bipolaris oryzae [1] and with Aspergillus niger [3] were 50.9% and 61.6%, respectively. In addition, the results for the inhibition at 1000 ppm with Bipolaris oryzae [2] and in the assay with Aspergillus niger [4] were 70.8% and 72.4%, respectively. In addition, the values for the inhibition at 10 ppm in the assay with Aspergillus niger [5] and in the assay with Bipolaris oryzae [6] were 46.3% and 40.2%, respectively.

`COc1ccc(-c2nnc(NC(=S)NC(=O)COc3ccc([N+](=O)[O-])cc3)o2)cc1`: the inhibition at 100 ppm in the assay on Bipolaris oryzae [1] was found to be 61.6%; with Aspergillus niger [3], 64.1%. In addition, the inhibition at 1000 ppm with Bipolaris oryzae [2] is 75.2%; with Aspergillus niger [4], 78.7%. Besides, the figures for the inhibition at 10 ppm with Aspergillus niger [5] and in the assay with Bipolaris oryzae [6] were 50.2% and 47.4%, respectively.

Take `Cc1ccc(OCC(=O)NC(=S)Nc2nnc(-c3ccccc3)o2)cc1`: the inhibition at 100 ppm is 50.8% with Bipolaris oryzae [1] and 52.6% in the assay on Aspergillus niger [3]. In addition, the figures for the inhibition at 1000 ppm with Bipolaris oryzae [2] and in the assay with Aspergillus niger [4] were 70.1% and 72.2%, respectively. The inhibition at 10 ppm in the assay on Aspergillus niger [5] worked out at 35.8%; in the assay with Bipolaris oryzae [6], 37.2%.
